Laboratory results taken from patent US12428406B2 (PMV Pharmaceuticals, Inc., priority 2019, dated 2025).

Each compound was assayed against T1, p53 Y220C (Homo sapiens, UniProt P04637, Y220C) (assay: In vitro DNA binding activity assay (HTRF / TR-FRET): stabilization of p53 Y220C and increase of its DNA binding activity). Conditions: recombinant His-tagged p53 Y220C DNA binding domain (aa 94-312), biotin-labeled consensus DNA, incubated at 27° C. or 29° C. for 60 min.
T1 construct: The recombinant protein was a truncation mutant containing only amino acids 94-312 of p53; made in house; host or cells: E. coli
Type: biochemical
Experimental: The ability of a compound of the invention to stabilize p53 Y220C and increase the DNA binding activity of p53 Y220C was measured by a homogeneous time-resolved fluorescence (HTRF) assay. Recombinant His-tagged p53 Y220C used in the HTRF assay was expressed in the bacterium E. coli.
The binding of the recombinant His-tagged p53 Y220C protein and the biotin-labeled consensus DNA was measured using fluorescence resonance energy transfer (FRET). For the FRET assay, the binding between the p53 mutant and the DNA sequence was measured by detecting the fluorescence of the interaction between an anti-His antibody conjugated to allophycocyanin (APC) and streptavidin conjugated to europium to detect the biotin-labeled DNA.
The test compounds were prepared as 4.5 mM stock solutions in dimethyl sulfoxide (DMSO). The compounds of the disclosure were used to test the stabilization of p53 Y220C and increase in DNA binding activity of p53 Y220C. The stock solutions were then serially diluted 3-fold in DMSO, and 1.2 μL of the diluted solutions was added to each well of a 384-well polypropylene black plate.
The test and control samples were spun at 1200 rpm for 1 minute and incubated at room temperature for 15 minutes. […] The plates were spun at 1200 rpm for 1 minute and incubated at room temperature for 20 minutes. The assay signals were monitored by reading excitation at 340 nm, and emission fluorescence at 615 nm and 665 nm on a plate reader.
The percentage of activation of protein DNA binding in the presence of a compound of the invention compared to the absence of the compound was denoted by a SC150 value, which indicated the concentration of the compound required to increase the DNA binding activity by 50%. The SC150 values were calculated using either Prism™ or ActivityBase™.

T1 sequence (P04637 94-312, change not shown): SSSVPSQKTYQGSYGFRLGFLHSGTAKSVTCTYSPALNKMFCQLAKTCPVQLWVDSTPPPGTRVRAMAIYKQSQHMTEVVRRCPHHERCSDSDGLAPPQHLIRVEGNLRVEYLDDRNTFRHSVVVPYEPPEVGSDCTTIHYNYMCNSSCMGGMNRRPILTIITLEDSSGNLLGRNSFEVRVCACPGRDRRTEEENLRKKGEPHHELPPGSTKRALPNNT

Row | SMILES | SC150 (concentration of the compound required to increase the DNA binding activity by 50%)
1 | COc1cc(S(C)(=O)=O)ccc1NCC#Cc1cc2c(N[C@H]3CCOC[C@H]3F)cccc2n1CC(F)(F)F (racemic) [Compound 1022A, rac-N-[(3R,4R)-3-fluorooxan-4-yl]-2-{3-[(4-methanesulfonyl-2-methoxyphenyl)amino]prop-1-yn-1-yl}-1-(2,2,2-trifluoroethyl)-1H-indol-4-amine] | + (+ = 0 μM ≤ SC150 < 0.05 μM)
2 | COc1cc(S(C)(=O)=O)ccc1NCC#Cc1cc2c(N[C@@H]3CN(C)CC[C@@H]3F)cccc2n1CC(F)(F)F (racemic) [Compound 1067A, rac-N-[(3R,4S)-4-fluoro-1-methylpiperidin-3-yl]-2-{3-[(4-methanesulfonyl-2-methoxyphenyl)amino]prop-1-yn-1-yl}-1-(2,2,2-trifluoroethyl)-1H-indol-4-amine] | + (+ = 0 μM ≤ SC150 < 0.05 μM)
3 | COc1cc(S(C)(=O)=O)ccc1NCC#Cc1cc2c(N[C@H]3CCC[C@H](N)C3)cccc2n1CC(F)(F)F (relative stereo) [Compound 26A, rel-(1R,3R)-N^1-(2-{3-[(4-methanesulfonyl-2-methoxyphenyl)amino]prop-1-yn-1-yl}-1-(2,2,2-trifluoroethyl)-1H-indol-4-yl)cyclohexane-1,3-diamine] | + (+ = 0 μM ≤ SC150 < 0.05 μM)
4 | COc1cc(S(C)(=O)=O)ccc1NCC#Cc1cc2c(N[C@H]3CCC[C@@H](O)C3)cccc2n1CC(F)(F)F (relative stereo) [Compound 30A, rel-(1R,3S)-3-[(2-{3-[(4-methanesulfonyl-2-methoxyphenyl)amino]prop-1-yn-1-yl}-1-(2,2,2-trifluoroethyl)-1H-indol-4-yl)amino] cyclohexan-1-ol] | + (+ = 0 μM ≤ SC150 < 0.05 μM)
5 | COc1cc(S(C)(=O)=O)ccc1NCC#Cc1cc2c(N[C@H]3CCN(C(C)=O)[C@@H](C)C3)cccc2n1CC(F)(F)F (stereo in doubt) [Compound 739A, 1-{4-[(2-{3-[(4-methanesulfonyl-2-methoxyphenyl)amino]prop-1-yn-1-yl}-1-(2,2,2-trifluoroethyl)-1H-indol-4-yl)amino]-2-methylpiperidin-1-yl}ethan-1-one] | + (+ = 0 μM ≤ SC150 < 0.05 μM)
6 | COc1cc(S(C)(=O)=O)ccc1NCC#Cc1cc2c(N(C)C)cccc2n1CC(F)(F)F [Compound 1A, 2-{3-[(4-methanesulfonyl-2-methoxyphenyl)amino]prop-1-yn-1-yl}-N,N-dimethyl-1-(2,2,2-trifluoroethyl)-1H-indol-4-amine] | +++ (+++ = 0.1 μM ≤ SC150 < 0.2 μM)
7 | COCCNc1cccc2c1cc(C#CCNc1ccc(S(N)(=O)=O)cc1OC)n2CC(F)(F)F [Compound 2A, 3-methoxy-4-[(3-{4-[(2-methoxyethyl)amino]-1-(2,2,2-trifluoroethyl)-1H-indol-2-yl}prop-2-yn-1-yl)amino]benzene-1-sulfonamide] | ++ (++ = 0.05 μM ≤ SC150 < 0.1 μM)
8 | COc1cc(S(N)(=O)=O)ccc1NCC#Cc1cc2c(NCC(N)=O)cccc2n1CC(F)(F)F [Compound 3A, 2-[(2-{3-[(2-methoxy-4-sulfamoylphenyl)amino]prop-1-yn-1-yl}-1-(2,2,2-trifluoroethyl)-1H-indol-4-yl)amino]acetamide] | ++++ (++++ = 0.2 μM ≤ SC150 < 1 μM)
9 | COc1cc(S(N)(=O)=O)ccc1NCC#Cc1cc2c(NC(CCO)CCO)cccc2n1CC(F)(F)F [Compound 4A, 4-[(3-{4-[(1,5-dihydroxypentan-3-yl)amino]-1-(2,2,2-trifluoroethyl)-1H-indol-2-yl}prop-2-yn-1-yl)amino]-3-methoxybenzene-1-sulfonamide] | + (+ = 0 μM ≤ SC150 < 0.05 μM)
10 | COc1cc(S(C)(=O)=O)ccc1NCC#Cc1cc2c(NC(C)=O)cccc2n1CC(F)(F)F [Compound 5A, N-(2-{3-[(4-methanesulfonyl-2-methoxyphenyl)amino]prop-1-yn-1-yl}-1-(2,2,2-trifluoroethyl)-1H-indol-4-yl)acetamide] | ++++ (++++ = 0.2 μM ≤ SC150 < 1 μM)
11 | COc1cc(S(C)(=O)=O)ccc1NCC#Cc1cc2c(NC(=O)NC3CCN(C)CC3)cccc2n1CC(F)(F)F [Compound 6A, 3-(2-{3-[(4-methanesulfonyl-2-methoxyphenyl)amino]prop-1-yn-1-yl}-1-(2,2,2-trifluoroethyl)-1H-indol-4-yl)-1-(1-methylpiperidin-4-yl)urea] | ++++ (++++ = 0.2 μM ≤ SC150 < 1 μM)
12 | COc1cc(C(N)=O)ccc1NCC#Cc1cc2c(NC(=O)NC3CCN(C)CC3)cccc2n1CC(F)(F)F [Compound 7A, 3-methoxy-4-{[3-(4-{[(1-methylpiperidin-4-yl)carbamoyl]amino}-1-(2,2,2-trifluoroethyl)-1H-indol-2-yl)prop-2-yn-1-yl]amino}benzamide] | ++++ (++++ = 0.2 μM ≤ SC150 < 1 μM)
13 | COc1cc(S(C)(=O)=O)ccc1NCC#Cc1cc2c(NC(=O)N3CCN(C)CC3)cccc2n1CC(F)(F)F [Compound 8A, N-(2-{3-[(4-methanesulfonyl-2-methoxyphenyl)amino]prop-1-yn-1-yl}-1-(2,2,2-trifluoroethyl)-1H-indol-4-yl)-4-methylpiperazine-1-carboxamide] | ++++ (++++ = 0.2 μM ≤ SC150 < 1 μM)
14 | COc1cc(C(N)=O)ccc1NCC#Cc1cc2c(NC(=O)N3CCN(C)CC3)cccc2n1CC(F)(F)F [Compound 9A, N-(2-{3-[(4-carbamoyl-2-methoxyphenyl)amino]prop-1-yn-1-yl}-1-(2,2,2-trifluoroethyl)-1H-indol-4-yl)-4-methylpiperazine-1-carboxamide] | ++++ (++++ = 0.2 μM ≤ SC150 < 1 μM)

Next, values leading:

Row | SC150 (concentration of the compound required to increase the DNA binding activity by 50%) | SMILES
15 | + (+ = 0 μM ≤ SC150 < 0.05 μM) | COc1cc(C(=O)O)ccc1NCC#Cc1cc2c(NC3CCN(C[C@@H](C)O)CC3F)cccc2n1CC(F)(F)F (mixture of isomers) [Compound 911A, 4-{[3-(4-{[(3S,4R)-3-fluoro-1-(2-hydroxypropyl)piperidin-4-yl]amino}-1-(2,2,2-trifluoroethyl)-1H-indol-2-yl)prop-2-yn-1-yl]amino}-3-methoxybenzoic acid]
16 | + (+ = 0 μM ≤ SC150 < 0.05 μM) | CCN1CC[C@H](Nc2cccc3c2cc(C#CCNc2ccc(C(=O)O)cc2OC)n3CC(F)(F)F)[C@H](F)C1 (racemic) [Compound 958A, 4-((3-(4-(((3R,4S)-1-ethyl-3-fluoropiperidin-4-yl)amino)-1-(2,2,2-trifluoroethyl)-1H-indol-2-yl)prop-2-yn-1-yl)amino)-3-methoxybenzoic acid]
17 | + (+ = 0 μM ≤ SC150 < 0.05 μM) | COc1cc(C(=O)O)ccc1NCC#Cc1cc2c(N[C@@H]3CCN(C[C@H](C)O)C[C@@H]3F)cccc2n1CC(F)(F)F (single isomer, unassigned) [Compound 921A]
18 | + (+ = 0 μM ≤ SC150 < 0.05 μM) | COc1cc(C(=O)NCC(CO)OC)ccc1NCC#Cc1cc2c(N[C@@H]3CCN(C)C[C@@H]3F)cccc2n1CC(F)(F)F (single isomer, unassigned) [Compound 966A]
19 | + (+ = 0 μM ≤ SC150 < 0.05 μM) | COc1cc(S(C)(=O)=O)ccc1NCC#Cc1cc2c(N[C@H]3CCN(C)C[C@H]3F)cccc2n1CC(F)(F)F (stereo in doubt) [Compound 773A, N-[(3R,4S)-3-fluoro-1-methylpiperidin-4-yl]-2-{3-[(4-methanesulfonyl-2-methoxyphenyl)amino]prop-1-yn-1-yl}-1-(2,2,2-trifluoroethyl)-1H-indol-4-amine]
20 | + (+ = 0 μM ≤ SC150 < 0.05 μM) | COc1cc(S(C)(=O)=O)ccc1NCC#Cc1cc2c(N[C@H]3CCN(C)C[C@@H]3F)cccc2n1CC(F)(F)F (stereo in doubt) [Compound 774A, N-((3S,4S)-3-fluoro-1-methylpiperidin-4-yl)-2-(3-((2-methoxy-4-(methylsulfonyl)phenyl)amino)prop-1-yn-1-yl)-1-(2,2,2-trifluoroethyl)-1H-indol-4-amine]
21 | + (+ = 0 μM ≤ SC150 < 0.05 μM) | COC(=O)c1ccc(NCC#Cc2cc3c(N[C@H]4CCN(C)C[C@H]4F)cccc3n2CC(F)(F)F)c(OC)c1 (stereo in doubt) [Compound 794A, methyl 4-{[3-(4-{[(3R,4S)-3-fluoro-1-methylpiperidin-4-yl]amino}-1-(2,2,2-trifluoroethyl)-1H-indol-2-yl)prop-2-yn-1-yl]amino}-3-methoxybenzoate]
